From patent publication US10308650B2, “Pesticidally active tetracyclic derivatives with sulfur containing substituents” (Syngenta Participations AG, priority 2014, dated 2019)
Where two headings read alike, the source gives them in different places.

Tests used:
Type in all cases: in vivo
[1] = system: Spodoptera littoralis (Egyptian Cotton Leaf Worm); experiment: Activity against Spodoptera littoralis (cotton leaf discs, spray); details: foliar, 72 h, read-out: control (mortality, anti-feeding effect, growth inhibition)
Description: Example B9: Activity Against Spodoptera littoralis (Egyptian Cotton Leaf Worm)
Cotton leaf discs were placed onto agar in 24-well microtiter plates and sprayed with aqueous test solutions prepared from 10,000 ppm DMSO stock solutions. After drying the leaf discs were infested with five L1 larvae. The samples were assessed for mortality, anti-feeding effect, and growth inhibition in comparison to untreated samples 3 days after infestation. Control of Spodoptera littoralis by a test sample is given when at least one of the categories mortality, anti-feedant effect, and growth inhibition is higher than the untreated sample.

[2] = system: Diabrotica balteata (Corn Root Worm); experiment: Activity against Diabrotica balteata; details: 96 h, read-out: effect in at least one of the two categories (mortality or growth inhibition); for percent effect (mortality or growth inhibition) at 200 ppm: application rate of 200 ppm, maize sprouts, L2 larvae, 4 days after infestation
Description: Example B2: Activity Against Diabrotica balteata (Corn Root Worm)
Maize sprouts placed onto an agar layer in 24-well microtiter plates were treated with aqueous test solutions prepared from 10,000 ppm DMSO stock solutions by spraying. After drying, the plates were infested with L2 larvae (6 to 10 per well). The samples were assessed for mortality and growth inhibition in comparison to untreated samples 4 days after infestation.

[3] = system: Myzus persicae (Green Peach Aphid); experiment: Activity against Myzus persicae: feeding/contact activity; details: foliar, 144 h
Description: Example B5: Activity Against Myzus persicae (Green Peach Aphid): Feeding/Contact Activity
Sunflower leaf discs were placed onto agar in a 24-well microtiter plate and sprayed with aqueous test solutions prepared from 10,000 ppm DMSO stock solutions. After drying, the leaf discs were infested with an aphid population of mixed ages. The samples were assessed for mortality 6 days after infestation.

[4] = system: Plutella xylostella (Diamond Back Moth); experiment: Activity against Plutella xylostella; details: 120 h, read-out: effect in at least one of the two categories (mortality or growth inhibition); for percent effect (mortality or growth inhibition) at 200 ppm: application rate of 200 ppm, artificial diet, L2 larvae, 5 days after infestation
Description: Example B8: Activity Against Plutella xylostella (Diamond Back Moth)
24-well microtiter plates with artificial diet were treated with aqueous test solutions prepared from 10,000 ppm DMSO stock solutions by pipetting. After drying, the plates were infested with L2 larvae (10 to 15 per well). The samples were assessed for mortality and growth inhibition in comparison to untreated samples 5 days after infestation.

[5] = system: Euschistus heros (Neotropical Brown Stink Bug); experiment: Activity against Euschistus heros; details: 120 h, read-out: effect in at least one of the two categories (mortality or growth inhibition); for percent effect (mortality or growth inhibition) at 200 ppm: application rate of 200 ppm, soybean leaves, N2 nymphs, 5 days after infestation; for percent control (mortality or growth inhibition) at 200 ppm: in Glycine max
Description: Example B3: Activity Against Euschistus heros (Neotropical Brown Stink Bug)
Soybean leaves on agar in 24-well microtiter plates were sprayed with aqueous test solutions prepared from 10,000 ppm DMSO stock solutions. After drying the leaves were infested with N2 nymphs. The samples were assessed for mortality and growth inhibition in comparison to untreated samples 5 days after infestation.

[6] = system: Bemisia tabaci (Cotton White Fly); experiment: Activity against Bemisia tabaci: feeding/contact activity; details: foliar, 144 h, application rate of 200 ppm, cotton leaf discs, adult white flies, 6 days after incubation
Description: Example B1: Activity Against Bemisia tabaci (Cotton White Fly): Feeding/Contact Activity
Cotton leaf discs were placed on agar in 24-well microtiter plates and sprayed with aqueous test solutions prepared from 10,000 ppm DMSO stock solutions. After drying the leaf discs were infested with adult white flies. The samples were checked for mortality 6 days after incubation.

[7] = system: Myzus persicae (Green Peach Aphid); experiment: Activity against Myzus persicae: intrinsic activity; details: 120 h
Text: Example B7: Activity Against Myzus persicae (Green Peach Aphid). Intrinsic Activity
Test compounds prepared from 10,000 ppm DMSO stock solutions were applied by pipette into 24-well microtiter plates and mixed with sucrose solution. The plates were closed with a stretched Parafilm. A plastic stencil with 24 holes was placed onto the plate and infested pea seedlings were placed directly on the Parafilm. The infested plate was closed with a gel blotting paper and another plastic stencil and then turned upside down. The samples were assessed for mortality 5 days after infestation.

[8] = system: Frankliniella occidentalis (Western Flower Thrips); experiment: Activity against Frankliniella occidentalis: feeding/contact activity; details: foliar, 168 h, application rate of 200 ppm, sunflower leaf discs, population of mixed ages, 7 days after infestation
Description: Example B4: Activity Against Frankliniella occidentalis (Western Flower Thrips): Feeding/Contact Activity
Sunflower leaf discs were placed on agar in 24-well microtiter plates and sprayed with aqueous test solutions prepared from 10,000 DMSO stock solutions. After drying the leaf discs were infested with a Frankliniella population of mixed ages. The samples were assessed for mortality 7 days after infestation.

[9] = system: Myzus persicae (Green Peach Aphid); experiment: Activity against Myzus persicae: systemic activity; details: 144 h
Description: Example B6: Activity Against Myzus persicae (Green Peach Aphid). Systemic Activity
Roots of pea seedlings infested with an aphid population of mixed ages were placed directly into aqueous test solutions prepared from 10,000 DMSO stock solutions. The samples were assessed for mortality 6 days after placing seedlings into test solutions.

[10] = system: Aedes aegypti (Yellow Fever Mosquito); experiment: Activity against Aedes aegypti; details: 200 ppm in ethanol, dry deposit in 12 well plates, adult females, after 48 h and/or 24 h
Description: Example B13: Activity Against Aedes aegypti (Yellow Fever Mosquito)
Test solutions, at an application rate of 200 ppm in ethanol, were applied to 12 well tissue culture plates. Once the deposits were dry, five, two to five day old adult female Aedes aegypti were added to each well, and sustained with a 10% sucrose solution in a cotton wool plug. Assessment of knockdown was made one hour after introduction, and mortality was assessed at 24 and 48 hours after introduction.

[11] = system: Spodoptera littoralis (Egyptian Cotton Leaf Worm); experiment: Activity against Spodoptera littoralis (lettuce, uptake by the roots from agar); details: 144 h, read-out: effect in at least one of the three categories (mortality, anti-feeding, or growth inhibition)
Text: Example B10: Activity Against Spodoptera littoralis (Egyptian Cotton Leaf Worm)
Test compounds were applied by pipette from 10,000 ppm DMSO stock solutions into 24-well plates and mixed with agar. Lettuce seeds were placed onto the agar and the multi well plate was closed by another plate which contained also agar. After 7 days the compound was absorbed by the roots and the lettuce grew into the lid plate. The lettuce leaves were then cut off into the lid plate. Spodoptera eggs were pipetted through a plastic stencil onto a humid gel blotting paper and the lid plate was closed with it. The samples were assessed for mortality, anti-feedant effect and growth inhibition in comparison to untreated samples 6 days after infestation.

[12] = application rate of 200 ppm, cotton leaf discs, L1 larvae, 3 days after infestation
[13] = application rate of 200 ppm, sunflower leaf discs, aphid population of mixed ages, 6 days after infestation, read-out: mortality
[14] = test rate of 12 ppm, sucrose solution under Parafilm, 5 days after infestation, read-out: mortality
[15] = test rate of 24 ppm, roots of infested pea seedlings in test solution, 6 days, read-out: mortality

CCSc1cc2c(nc1-c1nc3cc(C(F)(F)F)ncc3n1C)CC(C)(C)O2 [Compound A58, 6-ethylsulfanyl-2,2-dimethyl-5-[3-methyl-6-(trifluoromethyl)imidazo[4,5-c]pyridin-2-yl]-3H-furo[3,2-b]pyridine]
≥ 80%: mortality at 200 ppm [1, 12] | percent effect (mortality or growth inhibition) at 200 ppm [2] | mortality at 200 ppm [3, 13] | percent effect (mortality or growth inhibition) at 200 ppm [4] | percent effect (mortality or growth inhibition) at 200 ppm [5] | mortality at 200 ppm [6] | mortality at 12 ppm [7, 14]

CCS(=O)(=O)c1cc2nn(C)nc2cc1-c1nc2cc(C(F)(F)F)ncc2n1C [Compound A37, 5-ethylsulfonyl-2-methyl-6-[3-methyl-6-(trifluoromethyl)imidazo[4,5-c]pyridin-2-yl]benzotriazole]
≥ 80%: mortality at 200 ppm [1, 12] | percent effect (mortality or growth inhibition) at 200 ppm [2] | mortality at 200 ppm [8] | mortality at 24 ppm [9, 15] | mortality at 200 ppm [3, 13] | percent effect (mortality or growth inhibition) at 200 ppm [4] | percent effect (mortality or growth inhibition) at 200 ppm [5]

CCS(=O)(=O)c1cc2ccccc2cc1-c1nc2cc(C(F)(F)F)cnc2n1C [Compound A3, 2-(3-ethylsulfonyl-2-naphthyl)-3-methyl-6-(trifluoromethyl)imidazo[4,5-b]pyridine]
≥ 80%: mortality at 200 ppm [1, 12] | percent effect (mortality or growth inhibition) at 200 ppm [2] | mortality at 200 ppm [3, 13] | percent effect (mortality or growth inhibition) at 200 ppm [4] | percent effect (mortality or growth inhibition) at 200 ppm [5] | mortality at 12 ppm [7, 14]

CCS(=O)(=O)c1cc2c(nc1-c1nc3cc(C(F)(F)F)ncc3n1C)nc(C(F)(F)F)n2C [Compound A33, 6-ethylsulfonyl-1-methyl-5-[3-methyl-6-(trifluoromethyl)imidazo[4,5-c]pyridin-2-yl]-2-(trifluoromethyl)imidazo[4,5-b]pyridine]
≥ 80%: mortality at 200 ppm [1, 12] | percent effect (mortality or growth inhibition) at 200 ppm [2] | mortality at 200 ppm [8] | mortality at 24 ppm [9, 15] | mortality at 200 ppm [3, 13] | percent effect (mortality or growth inhibition) at 200 ppm [4] | percent effect (mortality or growth inhibition) at 200 ppm [5] | mortality at 200 ppm [6]

CCSc1cc2ccccc2cc1-c1nc2cc(C(F)(F)F)ncc2n1C [Compound A23, 2-(3-ethylsulfanyl-2-naphthyl)-3-methyl-6-(trifluoromethyl)imidazo[4,5-c]pyridine]
≥ 80%: percent effect (mortality or growth inhibition) at 200 ppm [2] | mortality at 200 ppm [3, 13] | percent effect (mortality or growth inhibition) at 200 ppm [4] | percent effect (mortality or growth inhibition) at 200 ppm [5] | mortality at 12 ppm [7, 14]

CCSc1cc2ccccc2nc1-c1nc2cc(C(F)(F)F)ncc2n1C [Compound A21, 3-ethylsulfanyl-2-[3-methyl-6-(trifluoromethyl)imidazo[4,5-c]pyridin-2-yl]quinolone]
≥ 80%: mortality at 200 ppm [1] | percent control (mortality or growth inhibition) at 200 ppm [2] | mortality at 200 ppm [3] | percent control (mortality or growth inhibition) at 200 ppm [4] | percent control (mortality or growth inhibition) at 200 ppm [5] | mortality at 12 ppm [7]

CCS(=O)(=O)c1cc2cc(C(F)(F)C(F)(F)F)ccc2nc1-c1nc2cc(C(F)(F)F)ncc2n1C [Compound A52, 3-ethylsulfonyl-2-[3-methyl-6-(trifluoromethyl)imidazo[4,5-c]pyridin-2-yl]-6-(1,1,2,2,2-pentafluoroethyl)quinoline]
≥ 80%: mortality at 200 ppm [1, 12] | percent effect (mortality or growth inhibition) at 200 ppm [2] | percent effect (mortality or growth inhibition) at 200 ppm [4] | percent effect (mortality or growth inhibition) at 200 ppm [5] | pest or weed control at 200 ppm [10]

CCSc1cc2c(cc1-c1nc3cc(C(F)(F)F)ncc3n1C)nc(C(F)(F)F)n2C [Compound A39, 2-[6-ethylsulfanyl-1-methyl-2-(trifluoromethyl)benzimidazol-5-yl]-3-methyl-6-(trifluoromethyl)imidazo[4,5-c]pyridine]
≥ 80%: percent effect (mortality or growth inhibition) at 200 ppm [2] | percent effect (mortality or growth inhibition) at 200 ppm [4] | pest or weed control at 200 ppm [10]

CCS(=O)(=O)c1cc2nc(C(F)(F)F)n(C)c2cc1-c1nc2cc(C(F)(F)F)ncc2n1C [Compound A8, 2-[6-ethylsulfonyl-3-methyl-2-(trifluoromethyl)benzimidazol-5-yl]-3-methyl-6-(trifluoromethyl)imidazo[4,5-c]pyridine]
≥ 80%: percent effect (mortality or growth inhibition) at 200 ppm [2] | mortality at 24 ppm [9, 15] | mortality at 200 ppm [3, 13] | percent effect (mortality or growth inhibition) at 200 ppm [4] | percent effect (mortality or growth inhibition) at 200 ppm [5] | mortality at 200 ppm [6] | pest or weed control at 200 ppm [10]

CCS(=O)(=O)c1cc2ccccc2nc1-c1nc2cc(C(F)(F)F)ncc2n1C [Compound A22, 3-ethylsulfonyl-2-[3-methyl-6-(trifluoromethyl)imidazo[4,5-c]pyridin-2-yl]quinolone]
≥ 80%: mortality at 200 ppm [1] | percent control (mortality or growth inhibition) at 200 ppm [2] | mortality at 24 ppm [9] | mortality at 200 ppm [3] | percent control (mortality or growth inhibition) at 200 ppm [4] | percent control (mortality or growth inhibition) at 200 ppm [5] | pest or weed control at 200 ppm [10] | percent control (mortality, anti-feedant effect or growth inhibition) at 12.5 ppm [11] | mortality at 12 ppm [7]
